pEC50, pIC50: −log10 of the molar value. Values joined by “and” are separate entries in the source; they are usually repeats but may differ in a detail not shown here. Equal entries are not always repeated.
Tests used:
[1] = Antiproliferative activity against human MRC9 cells assessed as cell growth inhibition measured after 72 hrs by MTT assay; format: functional, cell-based; details: MRC9, 72 h
[2] = tested on: Ca-Ski; test: Antiproliferative activity against human Ca-Ski cells assessed as cell growth inhibition measured after 72 hrs by MTT assay; format: functional, cell-based
[3] = tested on: HeLa; test: Antiproliferative activity against human HeLa cells assessed as cell growth inhibition measured after 72 hrs by MTT assay; format: functional, cell-based
[4] = tested on: THP-1; test: Antiproliferative activity against human THP-1 cells assessed as cell growth inhibition measured after 24 hrs by MTT assay; format: functional, cell-based; details: THP-1, 24 h
[5] = tested on: HepG2; test: Antiproliferative activity against human HepG2 cells assessed as cell growth inhibition measured after 24 hrs by MTT assay; format: functional, cell-based; details: HepG2, 24 h
[6] = tested on: HeLa; test: Antiproliferative activity against human HeLa cells assessed as cell growth inhibition measured after 24 hrs by MTT assay; format: functional, cell-based
[7] = tested on: K562; test: Antiproliferative activity against human K562 cells assessed as cell growth inhibition measured after 24 hrs by MTT assay; format: functional, cell-based; details: K562, 24 h
[8] = tested on: MDA-MB-231; test: Antiproliferative activity against human MDA-MB-231 cells assessed as cell viability by WST-1 assay; format: functional, cell-based
[9] = tested on: NCI-H23; test: Antiproliferative activity against human NCI-H23 cells assessed as cell viability by WST-1 assay; format: functional, cell-based
[10] = tested on: MG-63; test: Antiproliferative activity against human MG-63 cells assessed as cell viability by WST-1 assay; format: functional, cell-based
[11] = tested on: A549; test: Antiproliferative activity against human A549 cells assessed as cell viability by WST-1 assay; format: functional, cell-based
[12] = tested on: MV4-11; test: Antiproliferative activity against human MV4-11 cells assessed as cell viability by WST-1 assay; format: functional, cell-based
[13] = tested on: MDA-MB-468; test: Antiproliferative activity against human MDA-MB-468 cells assessed as cell viability by WST-1 assay; format: functional, cell-based
[14] = tested on: MCF7; test: Antiproliferative activity against human MCF7 cells assessed as cell growth inhibition measured after 72 hrs; format: functional, cell-based; details: MCF7, 72 h
[15] = tested on: PC-3; test: Antiproliferative activity against human PC-3 cells assessed as cell growth inhibition measured after 72 hrs; format: functional, cell-based; details: PC-3, 72 h
[16] = tested on: A-431; test: Antiproliferative activity against human A-431 cells assessed as cell growth inhibition measured after 72 hrs; format: functional, cell-based; details: A-431, 72 h
[17] = Antiproliferative activity against human OVK18 cells assessed as cell growth inhibition measured after 72 hrs; format: functional, cell-based; details: OVK18, 72 h
[18] = Antiproliferative activity against human PK-1 cells assessed as cell growth inhibition measured after 72 hrs; format: functional, cell-based; details: PK-1, 72 h
[19] = tested on: HCT-116; test: Antiproliferative activity against human HCT-116 cells assessed as cell growth inhibition measured after 72 hrs; format: functional, cell-based; details: HCT-116, 72 h
[20] = tested on: ACHN; test: Antiproliferative activity against human ACHN cells assessed as cell growth inhibition measured after 72 hrs; format: functional, cell-based
[21] = tested on: Huh-7; test: Antiproliferative activity against human Huh-7 cells assessed as cell growth inhibition measured after 72 hrs; format: functional, cell-based; details: Huh-7, 72 h
[22] = tested on: G-361; test: Antiproliferative activity against human G-361 cells assessed as cell growth inhibition measured after 72 hrs; format: functional, cell-based; details: G-361, 72 h
[23] = tested on: DLD-1; test: Antiproliferative activity against human DLD-1 cells assessed as cell growth inhibition measured after 72 hrs; format: functional, cell-based; details: DLD-1, 72 h
[24] = tested on: 8505C; test: Antiproliferative activity against human 8505C cells assessed as cell growth inhibition measured after 72 hrs; format: functional, cell-based
[25] = tested on: A549; test: Antiproliferative activity against human A549 cells assessed as cell growth inhibition measured after 72 hrs; format: functional, cell-based; details: A549, 72 h
[26] = tested on: GCIY; test: Antiproliferative activity against human GCIY cells assessed as cell growth inhibition measured after 72 hrs; format: functional, cell-based
[27] = Antiproliferative activity against human SH-10-TC cells assessed as cell growth inhibition measured after 72 hrs; format: functional, cell-based
[28] = tested on: HuCCT-1; test: Antiproliferative activity against human HuCCT-1 cells assessed as cell growth inhibition measured after 72 hrs; format: functional, cell-based; details: HuCCT-1, 72 h
[29] = tested on: RPMI-7951; test: Growth inhibition of human RPMI-7951 cells measured after 72 hrs by microplate reader analysis; format: functional, cell-based; details: RPMI-7951, time 72 hrs
[30] = Cytotoxicity against HUVEC cells assessed as cell growth inhibition by anti-angiogenisis screening assay; format: toxicity, cell-based; details: human
[31] = Cytotoxicity against mouse SVR cells assessed as cell growth inhibition by anti-angiogenisis screening assay; format: toxicity, cell-based
[32] = Cytotoxicity against mouse MS-1 cells assessed as cell growth inhibition by anti-angiogenisis screening assay; format: toxicity, cell-based
[33] = tested on: MDA-MB-231; test: Growth inhibition of human MDA-MB-231 cells measured after 72 hrs by microplate reader analysis; format: functional

Row | SMILES | pIC50 [4] | pIC50 [5] | pIC50 [6] | pIC50 [7] | pIC50 [8] | pIC50 [9] | pIC50 [10] | pIC50 [11] | pIC50 [12] | pIC50 [13] | also measured
1 | O=C1/C(=C/c2cccc(F)c2)CCC/C1=C\c1cccc(F)c1 |  |  |  |  |  |  |  |  |  |  | pEC50 [1]: 4.79; pEC50 [2]: 5.22; pEC50 ([3]; Homo sapiens, HeLa, 72 h): 5.08
2 | O=C1/C(=C/c2cccc(/N=C/c3ccccc3O)c2)CCC/C1=C\c1cccc(/N=C/c2ccccc2O)c1 | > 5.30 | > 5.30 | > 5.30 | > 5.30 |  |  |  |  |  |  | 
3 | COc1cc(/C=C2\CN(C(=O)C(C)C)C/C(=C\c3cc(OC)c(OC)c(OC)c3)C2=O)cc(OC)c1OC |  |  |  |  | 6.41 | 6.41 | 6.41 | 6.41 | 6.41 | 6.41 | 
4 | COc1cc(/C=C2\CN(C(C)=O)C/C(=C\c3cc(OC)c(OC)c(OC)c3)C2=O)cc(OC)c1OC |  |  |  |  | 6.41 | 6.41 | 6.41 | 6.41 | 6.41 | 6.41 | 
5 | COc1cc(CCC(O)CCc2cc(OC)c(OC)c(OC)c2)cc(OC)c1OC |  |  |  |  |  |  |  |  |  |  | pIC50 [14]: < 4.30; pIC50 [15]: < 4.30; pIC50 [16]: < 4.30; pIC50 [17]: < 4.30; pIC50 [18]: < 4.30; pIC50 [19]: < 4.30; pIC50 [20]: < 4.30; pIC50 [21]: < 4.30; pIC50 [22]: < 4.30; pIC50 [23]: < 4.30; pIC50 [24]: < 4.30; pIC50 [25]: < 4.30; pIC50 [26]: < 4.30; pIC50 [27]: < 4.30; pIC50 [28]: < 4.30
6 | O=C1/C(=C/c2cccc(/N=C/c3cccc(O)c3O)c2)CCC/C1=C\c1cccc(/N=C/c2cccc(O)c2O)c1 | > 5.30 | > 5.30 | > 5.30 | > 5.30 |  |  |  |  |  |  | 
7 | COc1cccc(/C=C2\CNC/C(=C\c3cccc(OC)c3OC)C2=O)c1OC |  |  |  |  | 6.41 | 6.41 | 6.41 | 6.41 | 6.41 | 6.41 | 
8 | O=C(/C=C/c1ccccc1O)/C=C/c1ccccc1O |  |  |  |  |  |  |  |  |  |  | GI50 [29]: 2300 nM; GI50 [30]: 1800 nM; GI50 [31]: 1800 nM; pEC50 [1]: 5.34; pEC50 [2]: 5.99; GI50 [32]: 1800 nM; pEC50 ([3]; hela): 5.99 and 5.59; GI50 [33]: 1000 nM
9 | O=C1/C(=C/c2cccc(/N=C/c3ccc(O)c(O)c3O)c2)CCC/C1=C\c1cccc(/N=C/c2ccc(O)c(O)c2O)c1 | > 5.30 | > 5.30 | > 5.30 | > 5.30 |  |  |  |  |  |  | 

— ChEMBL document CHEMBL5244235, “Diarylpentanoids with antitumor activity: A critical review of structure-activity relationship studies” (Eur J Med Chem, 2020)
